Data set [1] deals with fibrin- and LPS-induced microglia activation. The data set is described as follows: cells. In kind it is cell-based, rat.
Data set [2] deals with LPS-induced microglia activation. Kind of data set: Image-based assay of LPS-induced microglia activation (HTS and dose response). Particulars: for inhibition at 10 µM: Rattus norvegicus, Microglia, read-out: LPS % inhibition. In kind it is cell-based, rat.
The subject of data set [3] is fibrin-induced microglia activation. Kind of data set: Image-based assay of fibrin-induced microglia activation (HTS and dose response). Particulars: for inhibition at 10 µM: Rattus norvegicus, Microglia, read-out: Fibrin % inhibition. The class given is cell-based, rat.
The mark [4] stands for this setting: classification by fibrin and LPS inhibition, HTS at 10 μM.
The mark [5] stands for this setting: primary microglia HTS, LPS stimulation, compounds at 10 μM.
Where [6] appears, read: primary microglia HTS, fibrin stimulation, compounds at 10 μM.
The mark [7] stands for this setting: quadrant by fibrin and LPS inhibition in HTS of 1907 compounds.
[8] abbreviates: 48 h, primary microglia HTS, LPS stimulation, activation = cell size >800 μm2.
Setting [9] is: primary microglia HTS, fibrin stimulation, activation = cell size >800 μm2.

Structures can show the parent of a compound that is named as a salt. Where two headings read alike, the source gives them in different places.

For `CC[C@H]1CN2CCc3cc(OC)c(OC)cc3[C@@H]2C[C@@H]1C[C@H]1NCCc2cc(OC)c(OC)cc21` [Emetine, Emetine Dihydrochloride], in data set [1], the “Quadrant (FIG. 5b)” value is listed as “Q2”. For the same compound, the LPS % inhibition in data set [2] amounted to 115%. Besides, the Fibrin % inhibition in data set [3] is on record as 117%. For the same compound, the “LPS % cell toxicity” value in the data set on primary rat microglia was found to be 46%.
As for `C[C@H](N[C@@H](CCc1ccccc1)C(=O)O)C(=O)N1CCC[C@H]1C(=O)O` [Enalaprilat], in data set [1] (setting [4]), the “Quadrant (FIG. 5b)” value was “Q4”. Also, the LPS % inhibition in data set [2] (setting [5]) is on record as 18%. In addition, the Fibrin % inhibition in data set [3] (setting [6]) was determined as 25%. For the same compound, the “LPS % cell toxicity” value in the data set with primary rat microglia was 0%.
Turning to `CC1(C)[C@@H](O)CC[C@]2(C)[C@H]3C(=O)C=C4[C@@H]5C[C@@](C)(C(=O)O)CC[C@]5(C)CC[C@@]4(C)[C@]3(C)CC[C@@H]12` [Enoxolone], the “Quadrant (FIG. 5b)” value in data set [1] (setting [4]) is given as “Q4”. Moreover, the inhibition – broadly, the change of the read-out against control, counted positive when it falls – at 10 µM is 7% in data set [2] (setting [5]) and -40% in data set [3] (setting [6]). The “LPS % cell toxicity” value in the data set on primary rat microglia (rat) came to 0%.
For `CCN1CCN(c2cc3c(cc2F)c(=O)c(C(=O)O)cn3C2CC2)CC1` [Enrofloxacin] the same measures were “Q4”, 23%, 5% and 1%.
For `CCc1cc(C(N)=S)ccn1` [Ethionamide], in data set [1], the “Quadrant (FIG. 5b)” value is reported as “Q4”. For the same compound, the inhibition at 10 µM is 14% in data set [2] and 17% in data set [3]. Moreover, in the data set with primary rat microglia (rat), the “LPS % cell toxicity” value was found to be 0%.
With `C#C[C@]1(O)CC[C@H]2[C@@H]3CCC4=CC(=O)CC[C@]4(C)[C@H]3CC[C@@]21C` [Ethisterone], the “Quadrant (FIG. 5b)” value in data set [1] (setting [4]) was “Q4”. Also, the figures for the inhibition at 10 µM in data set [2] (setting [5]) and in data set [3] (setting [6]) were 13% and -5%, respectively. Further, the “LPS % cell toxicity” value in the data set with primary rat microglia (rat) is 1%.
For `COc1cc([C@@H]2c3cc4c(cc3[C@@H](O[C@@H]3O[C@@H]5CO[C@@H](C)O[C@H]5[C@H](O)[C@H]3O)[C@H]3COC(=O)[C@H]23)OCO4)cc(OC)c1O` [Etoposide] the same measures were “Q4”, 15%, 30% and 0%.
Consider `COCCCC/C(=N\OCCN)c1ccc(C(F)(F)F)cc1` [Fluvoxamine], for which, in data set [1] (setting [7]), the “Quadrant (FIG. 5b)” value is reported as “Q4”. In addition, the results for the inhibition at 10 µM in data set [2] (setting [8]) and in data set [3] (setting [9]) were -3% and -8%, respectively. The “LPS % cell toxicity” value with primary rat microglia (rat) was 0%.
As to `COc1ccc(Cl)cc1C(=O)NCCc1ccc(S(=O)(=O)NC(=O)NC2CCCCC2)cc1` [Glibenclamide, Glyburide], in data set [1] (setting [7]), the “Quadrant (FIG. 5b)” value is reported as “Q4”. Moreover, the LPS % inhibition in data set [2] (primary microglia HTS, LPS stimulation, activation = cell size >800 μm2) is 8%. Besides, in data set [3] (setting [9]), the Fibrin % inhibition is reported as −23%. In addition, in the data set with primary rat microglia, the “LPS % cell toxicity” value came to 0%.
In the case of `NCCc1c[nH]cn1` [Histamine], the “Quadrant (FIG. 5b)” value in data set [1] is recorded as “Q4”. Also, the inhibition at 10 µM in data set [2] (48 h) amounted to 27%; in data set [3], 21%. Also, the “LPS % cell toxicity” value with primary rat microglia (rat) is reported as 0%.
With `NC(=O)NO` [Hydroxyurea], the “Quadrant (FIG. 5b)” value in data set [1] (setting [7]) is listed as “Q4”. Also, the inhibition at 10 µM in data set [2] (setting [8]) was 25%; in data set [3] (setting [9]) it was 1%. Besides, the “LPS % cell toxicity” value with primary rat microglia (rat) was found to be 1%.
Turning to `O=P1(NCCCl)OCCCN1CCCl` (stereo not shown) [Ifosfamide], the “Quadrant (FIG. 5b)” value in data set [1] (setting [7]) was “Q4”. Besides, the inhibition at 10 µM in data set [2] (setting [8]) was 10%; in data set [3] (setting [9]), -11%. For the same compound, the “LPS % cell toxicity” value with primary rat microglia (rat) is recorded as 0%.
With `O=C1c2c(O)ccc(O)c2C(=O)c2c(NCCNCCO)ccc(NCCNCCO)c21` [Mitoxantrone], the “Quadrant (FIG. 5b)” value in data set [1] (quadrant by fibrin and LPS inhibition, HTS at 10 μM) was “Q2”. Also, the inhibition at 10 µM in data set [2] (setting [5]) came out at 122%; in data set [3] (setting [6]) it was 113%. Besides, the “LPS % cell toxicity” value in the data set on primary rat microglia (rat) was 40%.

The values above are taken from patent US20210330611A1, “THERAPY FOR NEUROLOGICAL DISEASES/DISORDERS” (priority 2020, published 2021).
